Experimental data taken from ChEMBL document CHEMBL4028802, “DILIrank: the largest reference drug list ranked by the risk for developing drug-induced liver injury in humans” (Drug Discov Today, 2016).

Tests used:
[1] = species on record: Homo sapiens; assay: Liver toxicity in human assessed as induction of drug-induced liver injury by measuring severity class index
[2] = species on record: Homo sapiens; assay: Liver toxicity in human assessed as induction of drug-induced liver injury by measuring verified drug-induced liver injury concern status
Throughout, for DILI severity class: key of the grades not given here.

SMILES | DILI_severity_class [1] | DILI_Concern [2]
CC[C@H](C)[C@H](NC(=O)[C@H](CCC(=O)O)NC(=O)[C@H](CO)NC(=O)[C@@H](NC(=O)[C@@H](N)CO)C(C)C)C(=O)N[C@@H](CCC(N)=O)C(=O)N[C@@H](CC(C)C)C(=O)N[C@@H](CCSC)C(=O)N[C@@H](Cc1cnc[nH]1)C(=O)N[C@@H](CC(N)=O)C(=O)N[C@@H](CC(C)C)C(=O)NCC(=O)N[C@@H](CCCCN)C(=O)N[C@@H](Cc1cnc[nH]1)C(=O)N[C@@H](CC(C)C)C(=O)N[C@@H](CC(N)=O)C(=O)N[C@@H](CO)C(=O)N[C@@H](CCSC)C(=O)N[C@@H](CCC(=O)O)C(=O)N[C@@H](CCCN=C(N)N)C(=O)N[C@H](C(=O)N[C@@H](CCC(=O)O)C(=O)N[C@@H](Cc1c[nH]c2ccccc12)C(=O)N[C@@H](CC(C)C)C(=O)N[C@@H](CCCN=C(N)N)C(=O)N[C@@H](CCCCN)C(=O)N[C@@H](CCCCN)C(=O)N[C@@H](CC(C)C)C(=O)N[C@@H](CCC(N)=O)C(=O)N[C@@H](CC(=O)O)C(=O)N[C@H](C(=O)N[C@@H](Cc1cnc[nH]1)C(=O)N[C@@H](CC(N)=O)C(=O)N[C@@H](Cc1ccccc1)C(=O)O)C(C)C)C(C)C [TERIPARATIDE] | 0 | No-Dili-Concern
C[C@]12CC[C@H]3[C@@H](CCC4=CC(=O)CC[C@@]43C)[C@@H]1CC[C@@H]2O [TESTOSTERONE] | 8 | Most-Dili-Concern
COc1cc2c(cc1OC)C1CC(=O)C(CC(C)C)CN1CC2 (stereo not drawn) [TETRABENAZINE] | 3 | Ambiguous-Dili-Concern
CN(C)[C@@H]1C(O)=C(C(N)=O)C(=O)[C@@]2(O)C(O)=C3C(=O)c4c(O)cccc4[C@@](C)(O)[C@H]3C[C@@H]12 [TETRACYCLINE] | 2 | Less-Dili-Concern
O=C1CCC(N2C(=O)c3ccccc3C2=O)C(=O)N1 (stereo not drawn) [THALIDOMIDE] | 4 | Less-Dili-Concern
Cn1c(=O)c2[nH]cnc2n(C)c1=O.O [THEOPHYLLINE] | 0 | No-Dili-Concern
c1ccc2[nH]c(-c3cscn3)nc2c1 [THIABENDAZOLE] | 7 | Most-Dili-Concern
Cc1ncc(C[n+]2csc(CCO)c2C)c(N)n1 [THIAMINE ION] | 0 | No-Dili-Concern
CSc1ccc2c(c1)N(CCC1CCCCN1C)c1ccccc1S2 (stereo not drawn) [THIORIDAZINE] | 5 | Less-Dili-Concern
S=P(N1CC1)(N1CC1)N1CC1 [THIOTEPA] | 3 | Less-Dili-Concern
Cc1ccsc1C(=CCCN1CCC[C@@H](C(=O)O)C1)c1sccc1C [TIAGABINE] | 3 | Ambiguous-Dili-Concern
CN(C)c1cc(NC(=O)CNC(C)(C)C)c(O)c2c1C[C@H]1C[C@H]3[C@H](N(C)C)C(O)=C(C(N)=O)C(=O)[C@@]3(O)C(O)=C1C2=O [TIGECYCLINE] | 8 | Ambiguous-Dili-Concern
Cc1cc(Br)c(O)c2ncccc12 [TILBROQUINOL] | 8 | Most-Dili-Concern
O=P(O)(O)C(Sc1ccc(Cl)cc1)P(=O)(O)O [TILUDRONIC ACID] | 0 | No-Dili-Concern
CC(C)(C)NC[C@H](O)COc1nsnc1N1CCOCC1 [TIMOLOL] | 5 | Ambiguous-Dili-Concern
CCS(=O)(=O)CCn1c([N+](=O)[O-])cnc1C [TINIDAZOLE] | 3 | Less-Dili-Concern
CC(S)C(=O)NCC(=O)O (stereo not drawn) [TIOPRONIN] | 3 | Ambiguous-Dili-Concern
CCCCS(=O)(=O)N[C@@H](Cc1ccc(OCCCCC2CCNCC2)cc1)C(=O)O [TIROFIBAN] | 0 | No-Dili-Concern
Clc1ccc2nsnc2c1NC1=NCCN1 [TIZANIDINE] | 8 | Most-Dili-Concern
Cc1ccc(S(=O)(=O)NC(=O)NN2CCCCCC2)cc1 [TOLAZAMIDE] | 2 | Less-Dili-Concern
Cc1ccc(C(=O)c2cc(O)c(O)c([N+](=O)[O-])c2)cc1 [TOLCAPONE] | 8 | Most-Dili-Concern
Cc1ccc(C(=O)c2ccc(CC(=O)O)n2C)cc1 [TOLMETIN] | 3 | Less-Dili-Concern
COc1ccc2c(C(=S)N(C)CC(=O)O)cccc2c1C(F)(F)F [TOLRESTAT] | 8 | Most-Dili-Concern
Cc1ccc(O)c([C@H](CCN(C(C)C)C(C)C)c2ccccc2)c1 [TOLTERODINE] | 0 | No-Dili-Concern
Cc1ccccc1C(=O)Nc1ccc(C(=O)N2CCCC(O)c3cc(Cl)ccc32)c(C)c1 (stereo not drawn) [TOLVAPTAN] | 8 | Most-Dili-Concern

SMILES | DILI_severity_class [1] | DILI_Concern [2]
CC1(C)O[C@@H]2[C@@H](CO[C@@]3(COS(N)(=O)=O)OC(C)(C)O[C@@H]23)O1 [TOPIRAMATE] | 3 | Less-Dili-Concern
CC[C@@]1(O)C(=O)OCc2c1cc1n(c2=O)Cc2cc3c(CN(C)C)c(O)ccc3nc2-1 [TOPOTECAN] | 0 | No-Dili-Concern
CN(C)CCOc1ccc(/C(=C(/CCCl)c2ccccc2)c2ccccc2)cc1 [TOREMIFENE] | 3 | Ambiguous-Dili-Concern
Cc1cccc(Nc2ccncc2S(=O)(=O)NC(=O)NC(C)C)c1 [TORSEMIDE] | 2 | Ambiguous-Dili-Concern
COc1cccc(C2(O)CCCCC2CN(C)C)c1 (stereo not drawn) [TRAMADOL] | 7 | Ambiguous-Dili-Concern
CCOC(=O)[C@H](CCc1ccccc1)N[C@@H](C)C(=O)N1[C@H](C(=O)O)C[C@H]2CCCC[C@@H]21 [TRANDOLAPRIL] | 4 | Less-Dili-Concern
N[C@@H]1C[C@H]1c1ccccc1.N[C@H]1C[C@@H]1c1ccccc1 [TRANYLCYPROMINE] | 3 | Less-Dili-Concern
O=c1n(CCCN2CCN(c3cccc(Cl)c3)CC2)nc2ccccn12 [TRAZODONE] | 5 | Less-Dili-Concern
CC1=C(/C=C/C(C)=C/C=C/C(C)=C/C(=O)O)C(C)(C)CCC1 [TRETINOIN] | 3 | Ambiguous-Dili-Concern
CC(=O)Oc1ccc(C2(c3ccc(OC(C)=O)cc3)C(=O)N(C(C)=O)c3ccccc32)cc1 [TRIACETYLDIPHENOLISATIN] | 8 | Most-Dili-Concern
Cc1nnc2n1-c1ccc(Cl)cc1C(c1ccccc1Cl)=NC2 [TRIAZOLAM] | 4 | Ambiguous-Dili-Concern
CN1CCN(CCCN2c3ccccc3Sc3ccc(C(F)(F)F)cc32)CC1 [TRIFLUOPERAZINE] | 2 | Ambiguous-Dili-Concern
OC(CCN1CCCCC1)(c1ccccc1)C1CCCCC1 (stereo not drawn) [TRIHEXYPHENIDYL] | 0 | No-Dili-Concern
CN1C(=O)OC(C)(C)C1=O [TRIMETHADIONE] | 5 | Ambiguous-Dili-Concern
COc1cc(C(=O)NCc2ccc(OCCN(C)C)cc2)cc(OC)c1OC [TRIMETHOBENZAMIDE] | 5 | Ambiguous-Dili-Concern
COc1cc(Cc2cnc(N)nc2N)cc(OC)c1OC [TRIMETHOPRIM] | 4 | Less-Dili-Concern
COc1cc(NCc2ccc3nc(N)nc(N)c3c2C)cc(OC)c1OC [TRIMETREXATE] | 3 | Ambiguous-Dili-Concern
CC(CN(C)C)CN1c2ccccc2CCc2ccccc21 (stereo not drawn) [TRIMIPRAMINE] | 2 | Ambiguous-Dili-Concern
Cc1ccc(/C(=C\CN2CCCC2)c2ccccn2)cc1 [TRIPROLIDINE] | 0 | No-Dili-Concern
Cc1c(C)c2c(c(C)c1O)CCC(C)(COc1ccc(CC3SC(=O)NC3=O)cc1)O2 (stereo not drawn) [TROGLITAZONE] | 8 | Most-Dili-Concern
NC(CO)(CO)CO [TROMETHAMINE] | 6 | Ambiguous-Dili-Concern
O=C(O[C@H]1C[C@H]2CC[C@@H](C1)[N+]21CCCC1)C(O)(c1ccccc1)c1ccccc1.[Cl-] [TROSPIUM CHLORIDE] | 0 | No-Dili-Concern
N[C@@H]1[C@H]2CN(c3nc4c(cc3F)c(=O)c(C(=O)O)cn4-c3ccc(F)cc3F)C[C@@H]12 [TROVAFLOXACIN] | 8 | Most-Dili-Concern
NCCc1ccc(O)cc1 [TYRAMINE] | 0 | No-Dili-Concern
